This series is described as follows: Assay of the vitamins contained in a randomly taken bottle of the syrupy product of Example 2 (yield = actual / theoretical amount x 100). The format is physicochemical. The note with it: syrupy product of Example 2, after preparation and packaging under inert atmosphere; actual amount of vitamin in the bottle divided by theoretical amount x 100. On the procedure:
The process can be broken down into the following steps: • the two preparation tanks (PT1 and PT2) and the pipe connecting them are inerted with an overpressure of inert gas at 0.4 bar for 300 sec.; • the sugar syrup is introduced into the main preparation tank (PT1); • the sugar syrup is left to stir with bubbling of nitrogen with a pressure of 0.4 bar and a flow rate of 4 Nm^3/h for 4 hours; • the sugar syrup is heated at 50° C. by means of the double jackets surrounding tank PT1; • the pH of the sugar syrup is adjusted to 9.5 by introducing the sodium hydroxide and the ascorbic acid; • the secondary preparation tank (PT2) is preheated at 50° C. by means of the double jackets surrounding tank PT2; • the Montanox 80 and the following fat-soluble vitamins: vitamin A, vitamin D3, vitamin E, are introduced into the secondary preparation tank (PT2); • the mixture in tank PT2 is left to stir at 50° C. and with bubbling of nitrogen for 60 minutes; • the content of tank PT2 is transferred to tank PT1 via the pipe connecting them; • tank PT2 is rinsed several times with water, at 50° C., purified and deoxygenated beforehand, and the rinsing water is then transferred to tank PT1 via the pipe connecting PT2 to PT1; • the content of tank PT1 is left to stir at 50° C. and with bubbling of nitrogen for 60 minutes; • the temperature of the content of tank PT1 is reduced to 35° C.; • the following water-soluble vitamins: vitamin B1, vitamin B2, vitamin B3, vitamin B5, vitamin B6, vitamin B8, vitamin B12 and vitamin C, and also the plum flavoring, are introduced into tank PT1; • the reservoirs which contained the vitamins are rinsed with purified water and the rinsing water is added to tank PT1; • the content of tank PT1 is left to stir at 35° C. and with bubbling of nitrogen for 120 minutes; • the dehydrated glucose is introduced into tank PT1 via the powder-transferring system; • purified and deoxygenated water is introduced into tank PT1; • the content of tank PT1 is left to stir at 35° C. and with bubbling of nitrogen for 60 minutes; • the piping between tank PT1 and the storage tank is inerted, and the storage tank is inerted with a nitrogen pressure at 0.4 bar and a flow rate of 1 Nm^3/h for 300 seconds; • the content of tank PT1 is transferred to the storage tank passing through the mixer into which nitrogen is injected, in contraflow to the passage of the liquid, with a pressure of 0.4 bar and a flow rate of 8 Nm^3/h; • the syrupy product which gradually accumulates in the storage tank is kept stirring at 150 rpm and with bubbling of nitrogen with a pressure of 0.4 bar and a flow rate of 2 Nm^3/h; • the pipes between the storage tank and the bottle-filling machine, and also the packaging hopper, are inerted with nitrogen at a pressure of 0.3 bar for 600 seconds; • the syrupy product is transferred to the packaging hopper and the content is kept at a nitrogen pressure of 0.2 bar; • the syrupy product is gradually transferred to the bottle-filling machine; • the bottles are inerted with nitrogen at 1 bar for 100 milliseconds, then they are filled with a volume of syrupy product metered by a positive-displacement pump and they are kept under a nitrogen atmosphere until they are closed by means of a crimped valve.
One of the bottles produced is taken randomly and the vitamins contained in this bottle are assayed. The yields are calculated by dividing the actual amount of vitamins that is contained in the bottle by the theoretical amount of vitamins that should be in the bottle, and by multiplying the result by 100.
As for `CC1=C(/C=C/C(C)=C/C=C/C(C)=C/CO)C(C)(C)CCC1` [Vitamin A, retinol], the “YIELD (individual vitamin ratio)” value was 100%.
The figure for `Cc1cc2nc3c(=O)[nH]c(=O)nc-3n(C[C@H](O)[C@H](O)[C@H](O)CO)c2cc1C` [Vitamin B2, riboflavin] is 98.6%; for `O=C(O)c1cccnc1` [Vitamin B3, nicotinic acid] it is 98.8%; for `CC(C)(CO)[C@@H](O)C(=O)NCCC(=O)O` [Vitamin B5, pantothenic acid] it is 100%.
Consider `Cc1ncc(CO)c(CO)c1O` [Vitamin B6, pyridoxine], for which the “YIELD (individual vitamin ratio)” value stood at 98.6%.
The figure for Vitamin E is 100%.

Values taken from patent US20150136638A1, “METHOD FOR PREPARING A SYRUPY PRODUCT COMPRISING VITAMINS” (LaboratoiresUrgo, priority 2012, published 2015).
